Experimental data taken from patent publication US9429582B2, “Tyrosine-phosphorylated WBP2, a novel cancer target and biomarker” (National University of Singapore, priority 2010, dated 2016).
Where two headings read alike, the source gives them in different places.

Legend:
Type in all cases: cell-based, human
ERα = assay: Immunoblot of ERα expression in drug-treated WBP2-Y192-231E mutant-expressing MCF7
Method: For cells co-transfected ERE-luciferase, they were either left alone or stimulated with 50 ng/ml Wnt3a ligand for 16 hrs. TCF/ERα luciferase activities in various conditions were then assayed. **P<0.01, ***P<0.001, Student's t-test (2-tailed). […] Cell numbers were measured.
Their expression levels were quantified in three independent experiments and the averages were presented relative to actin. […] For cells co-transfected ERE luciferase, they were either left alone or stimulated with 50 ng/ml Wnt3a ligand for 16 hrs. TCF(C)/ER[…](D) luciferase activities in various conditions were then assayed and analyzed in relative to untreated vector control. **P<0.01, ***P<0.001, Student's t-test (2-tailed). […] Cell numbers were measured daily and compared in relative to vehicle treated vector-expressing cells on Day 0. […] Cell numbers were measured and compared in relative to vehicle-treated cells. […] Cell numbers were measured on day 2 and day 4 and compared in relative to vehicle-treated control at each day (Top Panel). These treated cells were harvested for IB analysis with antibodies indicated (Bottom Panel).
First, we exposed WBP2 phospho-mimic expressing MCF7 cells to serial concentrations of fulvestrant (0.1 nM, 1 nM, 10 nM, 100 nM and 1 μM) and probed for ERα expression to determine the effective working concentration. […] Next, we compared the growth and proliferation of WBP2 phospho-mimic mutant expressing MCF7 in the presence of 100 nM fulvestrant or 15 μM FH535.

vector-expressing MCF7 = assay: Cell proliferation (MTS / cell numbers) of vector-expressing MCF7; settings: Homo sapiens, 96 h; MCF7 cells expressing vector; day 4; 100 nM fulvestrant or 15 μM FH535; read-out: inhibition of growth / reduction of proliferation
Method: (§1) A: Whole cell lysates from vector, WBP2-WT, WBP2-Y192-231E mutant and WBP2-Y192-231F mutant expressing MCF7 or Y192-231E mutant expressing MCF7 with WBP2 knockdown were used for IB analysis with antibodies indicated. B: Vector, WBP2-WT, WBP2-Y192-231E mutant or WBP2-Y192-231F mutant-expressing MCF7 were co-transfected with TOPFlash (top panel) or ERE-Luciferase (bottom panel) reporter construct. For cells co-transfected ERE-luciferase, they were either left alone or stimulated with 50 ng/ml Wnt3a ligand for 16 hrs. TCF/ERα luciferase activities in various conditions were then assayed. **P<0.01, ***P<0.001, Student's t-test (2-tailed). C: Vector or WBP2-Y192-231E mutant-expressing MCF7 were treated with indicated concentrations of Tamoxifen(Tam) and/or FH535. Cell numbers were measured. D: Whole cell lysates from WBP2-Y192-231E mutant-expressing MCF7 treated with 2 μM Tam and/or 15 μM FH5353 were harvested at day 2-4 post-treatment and used for IB analysis with antibodies indicated.
Whole cell lysates from vector, WBP2-WT, WBP2-Y192-231E mutant and WBP2-Y192-231F mutant expressing MCF7 (A) or Y192-231E mutant expressing MCF7 with WBP2 knockdown (B) were used for IB analysis with antibodies indicated. Their expression levels were quantified in three independent experiments and the averages were presented relative to actin. Representative blots (order in lanes from left to right: vector, WBP2, Y192-231E, Y192F) were presented as insets to the bar graphs. **P<0.01, ***P<0.001, Student's t-test (2-tailed) relative to vector. […] TCF(C)/ER[…](D) luciferase activities in various conditions were then assayed and analyzed in relative to untreated vector control. **P<0.01, ***P<0.001, Student's t-test (2-tailed). […] Cell numbers were measured daily and compared in relative to vehicle treated vector-expressing cells on Day 0. […] Cell numbers were measured and compared in relative to vehicle-treated cells. Their […] were analyzed statistically with SPSS 13.0. […] Cell numbers were measured on day 2 and day 4 and compared in relative to vehicle-treated control at each day (Top Panel). […]

[1] = system: WBP2-Y192-231E mutant-expressing MCF7; assay: Cell proliferation (MTS / cell numbers) of WBP2-Y192-231E mutant-expressing MCF7
Method: as §1
Effect of knockdown of E2F1 and E2F3 on MCF7 cells overexpressing WBP2-Y192-231E. A. MCF7 cells expressing WBP2-Y192-231E were transfected with indicated siRNAs and knockdown efficiency was confirmed using western blotting. B. Cells were co-transfected with indicated siRNAs and E2F reporter plasmid and harvested for luciferase assay after 48 hours. Luciferase readings were normalized against constitutive TK promoter renilla luciferase readings. C. Cells were transfected with indicated siRNAs and BrdU incorporation assay was performed. Percentages of BrdU positive cells relative to control siRNA treated cells were plotted as bar charts. D. Cells were transfected with indicated siRNAs. MTS assay was performed on day 3. Percentages of cell proliferation relative to control siRNA treated cells were plotted as bar charts.
Whole cell lysates from vector, WBP2-WT, WBP2-Y192-231E mutant and WBP2-Y192-231F mutant expressing MCF7 (A) or Y192-231E mutant expressing MCF7 with WBP2 knockdown (B) were used for IB analysis with antibodies indicated. Their expression levels were quantified in three independent experiments and the averages were presented relative to actin. Representative blots (order in lanes from left to right: vector, WBP2, Y192-231E, Y192F) were presented as insets to the bar graphs. **P<0.01, ***P<0.001, Student's t-test (2-tailed) relative to vector. Vector, WBP2-WT, WBP2-Y192-231E mutant or WBP2-Y192-231F mutant-expressing MCF7 were cotransfected with TOPFlash(C) or ERE-Luciferase(D) reporter construct. For cells co-transfected ERE luciferase, they were either left alone or stimulated with 50 ng/ml Wnt3a ligand for 16 hrs. TCF(C)/ER[…](D) luciferase activities in various conditions were then assayed and analyzed in relative to untreated vector control. **P<0.01, ***P<0.001, Student's t-test (2-tailed). E: Vector or WBP2-Y192-231E mutant-expressing MCF7 were treated with indicated concentrations of 2 µM tamoxifen (Tam) and/or 15 µM FH535 for 4 days. Cell numbers were measured daily and compared in relative to vehicle treated vector-expressing cells on Day 0. F: Vector or WBP2-Y192-231E mutant-expressing MCF7 were treated with indicated concentrations (0-50 µM) of FH535 for 2 days. Cell numbers were measured and compared in relative to vehicle-treated cells. Their […] were analyzed statistically with SPSS 13.0. G: Whole cell lysates from WBP2-Y192-231E mutant-expressing MCF7 treated with 2 μM Tam and/or 15 μM FH5353 were harvested at day 2-4 post-treatment and used for IB analysis with antibodies indicated. H: Vector or WBP2-Y192-231E mutant-expressing MCF7 were treated with indicated concentrations of 100 nM fulvestrant and/or 15 µM FH535 for 4 days. Cell numbers were measured on day 2 and day 4 and compared in relative to vehicle-treated control at each day (Top Panel). These treated cells were harvested for IB analysis with antibodies indicated (Bottom Panel). […]

SMILES | ERα expression (ERα; WBP2 phospho-mimic expressing MCF7, one hundred nM fulvestrant, data not shown) | inhibition at 0.1 µM (vector-expressing MCF7) [%] | inhibition at 0.1 µM ([1]; Homo sapiens, 96 h, MCF7 cells expressing Y192-231E mutant, day 4, 100 nM fulvestrant or 15 μM FH535, read-out: inhibition of growth / reduction of proliferation) [%] | ERα expression (ERα) | growth inhibition ([1]; Y192-231E-expressing MCF7 treated with Tamoxifen) | retardation of proliferation ([1]; Y192-231E-expressing cells, higher doses of up to 2000 nM)
C[C@]12CC[C@@H]3c4ccc(O)cc4C[C@@H](CCCCCCCCC[S+]([O-])CCCC(F)(F)C(F)(F)F)[C@H]3[C@@H]1CC[C@@H]2O (stereo partly drawn) [fulvestrant] | almost completely abolished | ~50 | ~40 |  |  | 
CC/C(=C(\c1ccccc1)c1ccc(OCCN(C)C)cc1)c1ccccc1 [Tamoxifen] |  |  |  | but not Tamoxifen significantly reduced | No significant growth inhibition | unremarkable
